What is called IC50 is the midpoint of a concentration-inhibition curve. A lower IC50 goes with greater potency in that assay.

The values below come from patent publication US6583147B1, “Pyrazolopyrimidinone derivatives for the treatment of impotence” (Dong A Pharm Co., Ltd., priority 1998, dated 2003).

The test system of one data set is rats. As to the kind of experiment: Penile erection test using rats. Type of data set: in vivo, rat. Particulars: oral single dose 10 mg/kg in 0.5% methyl cellulose, observed for 2 hours.
For data set [1], the target named is T1, Phosphodiesterase-5 enzyme (PDE 5) (Homo sapiens, UniProt O76074).
T1 construct: separated by HPLC (Mono Q anion exchange column) with concentration gradient of 0-500 mM NaCl to elute PDE isozymes; from tissue; host or cells: human corpus cavernosal tissue
In words: Test for phosphodiesterase-5 (PDE 5) activity. Type of data set: biochemical. To be noted: PDE 5 fraction from human corpus cavernosal tissues.

Data set [2] has as its target T2, Phosphodiesterase-3 enzyme (PDE 3) (Oryctolagus cuniculus, UniProt G1ST54).
T2 construct: The supernatant was separated by DEAE-cellulose column chromatography (Whatman DE52 bead); from tissue; host or cells: rabbit platelets
T2 sequence (G1ST54 1-1128): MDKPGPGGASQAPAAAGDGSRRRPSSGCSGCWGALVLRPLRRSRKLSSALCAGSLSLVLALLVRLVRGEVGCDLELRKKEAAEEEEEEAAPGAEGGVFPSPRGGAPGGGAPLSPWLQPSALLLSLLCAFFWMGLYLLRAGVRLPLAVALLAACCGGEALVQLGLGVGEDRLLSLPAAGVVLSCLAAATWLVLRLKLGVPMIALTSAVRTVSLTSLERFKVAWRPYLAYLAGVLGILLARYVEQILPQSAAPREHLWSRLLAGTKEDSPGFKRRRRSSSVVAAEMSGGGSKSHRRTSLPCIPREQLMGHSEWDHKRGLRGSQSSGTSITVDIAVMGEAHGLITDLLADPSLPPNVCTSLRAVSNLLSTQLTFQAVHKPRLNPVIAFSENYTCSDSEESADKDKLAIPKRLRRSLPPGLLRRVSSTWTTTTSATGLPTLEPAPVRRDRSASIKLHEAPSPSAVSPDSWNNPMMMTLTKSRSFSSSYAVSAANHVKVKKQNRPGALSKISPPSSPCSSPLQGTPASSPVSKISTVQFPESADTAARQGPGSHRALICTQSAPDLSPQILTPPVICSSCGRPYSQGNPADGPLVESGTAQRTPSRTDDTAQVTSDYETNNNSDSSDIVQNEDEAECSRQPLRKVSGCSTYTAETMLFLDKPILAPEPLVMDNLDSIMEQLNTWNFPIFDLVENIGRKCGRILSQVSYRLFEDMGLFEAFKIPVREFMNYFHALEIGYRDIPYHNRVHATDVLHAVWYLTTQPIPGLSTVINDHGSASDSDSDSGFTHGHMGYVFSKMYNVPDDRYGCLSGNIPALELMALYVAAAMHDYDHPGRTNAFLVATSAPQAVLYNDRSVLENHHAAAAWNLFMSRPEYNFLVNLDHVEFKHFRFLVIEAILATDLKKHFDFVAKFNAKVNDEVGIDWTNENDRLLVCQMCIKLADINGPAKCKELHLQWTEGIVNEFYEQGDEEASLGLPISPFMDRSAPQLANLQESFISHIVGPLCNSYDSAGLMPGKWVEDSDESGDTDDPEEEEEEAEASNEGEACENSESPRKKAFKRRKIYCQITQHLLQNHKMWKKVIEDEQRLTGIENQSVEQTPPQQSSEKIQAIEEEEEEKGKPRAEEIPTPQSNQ
As to the kind of experiment: Test for phosphodiesterase-3 (PDE 3) activity. It is filed as biochemical. Particulars: PDE 3 fraction from platelets of a rabbit. How it is done: Phosphodiesterase-3 enzyme (PDE 3) was separated from platelets of a rabbit. About 60 ml of blood was collected from a puncture of the abdominal artery of a rabbit in heparinized syringes. Platelet-rich plasma was harvested by centrifugation for 5 min at 450×g and further centrifuged for 15 min at 1,200×g to precipitate the platelets. The platelets were resuspended in homogenizing buffer (50 mM Tris-HCl, 1 mM MgCl2, pH 7.4), homogenized at 4° C. and ultrasonicated (30 sec/ml). The homogenized solution was centrifuged (105,000×g) for 1 hr at 4° C. to obtain the supernatant in which PDE was dissolved. The supernatant was separated by DEAE-cellulose column chromatography (Whatman DE52 bead) by using eluent (50 mM Tris-HCl, 3.75mM2-mercaptoethanol, pH 6.0) with concentration gradient of 0-1 M sodium acetate to elute PDE isozymes. The PDE activity was measured on the each column fraction by the following process to separate PDE 3 fraction and the inhibition for PDE 3 of the compounds of formula 1 was measured by using the fraction.
To 1.5 ml tube containing 100 ul of reaction mixture (15 mM Tris-HCl, 5 mM MgCl2, 0.5 mg/ml BSA, pH 7.4) were added appropriate amount of PDE 3 fraction and PDE inhibitor and the solution was mixed well. After [^3H]-cAMP or [^3H]-cGMP (500 nM, 2 uCi/ml) was added, the mixture was reacted in incubator of 30° C. for about 1 hour and the reaction was quenched by putting the tube into boiling water for about 45 seconds to 2 min. The tube was chilled in ice bath for about 5 min. To this tube was added snake venom (1 mg/ml, 100 ul) or 5′-nucleotidase (0.1 unit/tube) and the mixture was reacted in incubator of 37° C. for 10 min and chilled in ice bath. 3 times volume of methanol to the resin was added to the anion exchange resin (Bio-Rad resin, AG1-X2, 200-400 mesh) which had been already washed with 0.5 N HCl, H2O, 0.5 N NaOH, H2O, 0.5 N HCl and H2O in order and adjusted to pH 5. Then 1 ml of the pretreated resin was added to the each tube with vortexing. The mixture was left at 4° C. for 15 min with occasional vortexing and centrifuged (10,000 rpm) for about 5 min to sediment the resin. The supernatant (700 ul) was transferred to a liquid scintillation vial, and mixed with 10 ml of scintillation cocktail. After stabilizing the mixture by leaving it overnight, the radioactivity of the tube was measured by β-counter.

Data set [3] in a line: Acute oral toxicity test in rats. Particulars: SD, rat, in vivo, 1 g/kg; rats, oral single dose; read-out: lethal dose (LD50) of oral administration.

In the case of `CCCc1nn(C)c2c(=O)[nH]c(-c3cc(S(=O)(=O)Nc4cccnc4)ccc3OCC)nc12` [Example 38, 5-[2-ethoxy-5-(3-pyridylamidosulfonyl)phenyl]-1-methyl-3-propyl-1,6-dihydro-7H-pyrazolo(4,3-d)pyrimidin-7-one], in the data set on rats, the “PEI (penile erection index)” value was 233.3 ± 230.9. Also, in the data set with rats, the “genital grooming (number of genital groomings)” value (shortened to “genital grooming”) was found to be 2.7 ± 2.9. For the same compound, the IC50 is 8.07 nM in data set [1] and 208000 nM in data set [2]. Besides, in data set [3], the LD50 was greater than 1000 mg/kg.
The corresponding values for `CCCOc1ccc(S(=O)(=O)NCC2CCN(CC)C2)cc1-c1nc2c(CCC)nn(C)c2c(=O)[nH]1` (stereo not shown) [Example 64, 5-[2-propyloxy-5-(1-ethyl-3-pyrrolidinylmethylamidosulfonyl)phenyl]-1-methyl-3-propyl-1,6-dihydro-7H-pyrazolo(4,3-d)pyrimidin-7-one] are 175.0 ± 95.7, 2.8 ± 0.5, 30.7 nM, 134000 nM and greater than 1000 mg/kg.
Regarding `CCCOc1ccc(S(=O)(=O)NC(C)C)cc1-c1nc2c(CCC)nn(C)c2c(=O)[nH]1` [Example 3, 5-[2-propyloxy-5-(isopropylamidosulfonyl)phenyl]-1-methyl-3-propyl-1,6-dihydro-7H-pyrazolo(4,3-d)pyrimidin-7-one], the “PEI (penile erection index)” value with rats is 233.3 ± 152.8. Also, the “genital grooming” value with rats is listed as 2.7 ± 2.1. Further, the figures for the IC50 in data set [1] and in data set [2] were 5.36 nM and greater than 223000 nM, respectively. Further, the LD50 in data set [3] was greater than 1000 mg/kg.
Regarding `CCOc1ccc(S(=O)(=O)NC2CCN(C)C2)cc1-c1nc2c(CC(C)C)nn(C)c2c(=O)[nH]1` (stereo not shown) [Example 54, 5-[2-ethoxy-5-(1-methyl-3-pyrrolidinylamidosulfonyl)phenyl]-1-methyl-3-isobutyl-1,6-dihydro-7H-pyrazolo(4,3-d)pyrimidin-7-one], the “PEI (penile erection index)” value with rats is recorded as 233.3 ± 230.9. Besides, the “genital grooming” value with rats is on record as 2.7 ± 2.9. Besides, the half-maximal inhibitory concentration (IC50) is 39.1 nM in data set [1] and greater than 205000 nM in data set [2]. The LD50 in data set [3] was greater than 1000 mg/kg.
Consider `CCOc1ccc(S(=O)(=O)NCc2ccccc2)cc1-c1nc2c(CC(C)C)nn(C)c2c(=O)[nH]1` [Example 2, 5-[2-ethoxy-5-(benzylamidosulfonyl)phenyl]-1-methyl-3-isobutyl-1,6-dihydro-7H-pyrazolo(4,3-d)pyrimidin-7-one], for which, in the data set with rats, the “PEI (penile erection index)” value is 533.3 ± 305.5 and the “genital grooming” value is given as 5.7 ± 2.5. In data set [1], this compound gave an IC50 of 10.8 nM. Moreover, the IC50 in data set [2] is greater than 202000 nM. Moreover, the LD50 in data set [3] is greater than 1000 mg/kg.
The corresponding values for `CCCc1nn(CC)c2c(=O)[nH]c(-c3cc(S(=O)(=O)Nc4ccc(F)cc4)ccc3OCC)nc12` [Example 33, 5-[2-ethoxy-5-(4-fluorophenylamidosulfonyl)phenyl]-1-ethyl-3-propyl-1,6-dihydro-7H-pyrazolo(4,3-d)pyrimidin-7-one] are 233.3 ± 57.7, 2.7 ± 0.6, 19.7 nM, 188000 nM and greater than 1000 mg/kg.
The corresponding values for `CCCOc1ccc(S(=O)(=O)NC2CCN(C)C2)cc1-c1nc2c(CCC)nn(C)c2c(=O)[nH]1` (stereo not shown) [Example 53, 5-[2-propyloxy-5-(1-methyl-3-pyrrolidinylamidosulfonyl)phenyl]-1-methyl-3-propyl-1,6-dihydro-7H-pyrazolo(4,3-d)pyrimidin-7-one] are 300.0 ± 200.0, 2.7 ± 2.1, 20.9 nM, greater than 205000 nM and greater than 1000 mg/kg.
Taken in the same sequence, the figures for `CCOc1ccc(S(=O)(=O)Nc2cccnc2)cc1-c1nc2c(CC(C)C)nn(C)c2c(=O)[nH]1` [Example 41, 5-[2-ethoxy-5-(3-pyridylamidosulfonyl)phenyl]-1-methyl-3-isobutyl-1,6-dihydro-7H-pyrazolo(4,3-d)pyrimidin-7-one] were 177.8 ± 203.7, 1.7 ± 1.5, 2.28 nM, 9930 nM and greater than 1000 mg/kg.
As to `CCCOc1ccc(S(=O)(=O)NCc2ccccn2)cc1-c1nc2c(CCC)nn(C)c2c(=O)[nH]1` [Example 52, 5-[2-propyloxy-5-(2-pyridylmethylamidosulfonyl)phenyl]-1-methyl-3-propyl-1,6-dihydro-7H-pyrazolo(4,3-d)pyrimidin-7-one], the “PEI (penile erection index)” value in the data set on rats is 233.3 ± 57.7. In addition, in the data set on rats, the “genital grooming” value came to 3.0 ± 1.0. Besides, the IC50 in data set [1] is 9.89 nM; in data set [2], greater than 201000 nM. In data set [3], the LD50 was greater than 1000 mg/kg.
In the case of `CCCCNS(=O)(=O)c1ccc(OCC)c(-c2nc3c(CCC)nn(C)c3c(=O)[nH]2)c1` [Example 9, 5-[2-ethoxy-5-(butylamidosulfonyl)phenyl]-1-methyl-3-propyl-1,6-dihydro-7H-pyrazolo(4,3-d)pyrimidin-7-one], in the data set on rats, the “PEI (penile erection index)” value amounted to 200.0 ± 100.0 and the “genital grooming” value was 4.7 ± 1.2. The compound further showed an IC50 in data set [1] of 10.7 nM. Besides, in data set [2], the concentration for half-maximal inhibition (IC50) is greater than 223000 nM. Also, in data set [3], the LD50 is greater than 1000 mg/kg.
Turning to `CCCOc1ccc(S(=O)(=O)Nc2cccnc2)cc1-c1nc2c(CCC)nn(C)c2c(=O)[nH]1` [Example 39, 5-[2-propyloxy-5-(3-pyridylamidosulfonyl)phenyl)-1-methyl-3-propyl-1,6-dihydro-7H-pyrazolo(4,3-d)pyrimidin-7-one], the “PEI (penile erection index)” value in the data set on rats is given as 166.7 ± 57.7. In addition, the “genital grooming” value with rats is on record as 1.3 ± 1.5. Besides, the IC50 in data set [1] is 1.16 nM; in data set [2], 41700 nM. The LD50 in data set [3] was greater than 1000 mg/kg.
